These are literature values, as cited in patent publication US20240408573A1, “ACIDIC GAS ADSORBENT AND ACIDIC GAS ADSORPTION DEVICE” (NITTO DENKO CORPORATION, priority 2021, published 2024).

Each structure is given as a SMILES string.

The conditions of data set [1]: safety index in terms of handling.
The conditions of data set [2]: safety index in terms of handling. The source holds these as a separate data set.
For data set [3] the following is noted: safety index in terms of handling. This is another data set of the same source.

As for `NCCNCCNCCN` [TETA, triethylenetetramine], the “Mutagenicity test (Ames test)” value in data set [1] was “Positive”. Moreover, the “Skin irritation test (rabbit)” value with rabbits is recorded as “Strong irritant”. The “Fire Service Act” value in data set [2] was “Hazardous material”. Moreover, the “Poisonous and Deleterious Substances Control Act” value in data set [3] is “Deleterious”.
